{
  "source": "paper PMC8496776",
  "about": "“Staphylococcus aureus Lipase 3 (SAL3) is a surface-associated lipase that hydrolyzes short chain fatty acids” (PLoS ONE, 2021)",
  "key": {"[1]": {"target": "T1, rSAL3 (Staphylococcus aureus lipase 3, SAL3) (Staphylococcus aureus, UniProt A0A0H2XHH9)", "T1 construct": "gene SAUSA300_0641", "T1 sequence (A0A0H2XHH9 entry or part of it)": "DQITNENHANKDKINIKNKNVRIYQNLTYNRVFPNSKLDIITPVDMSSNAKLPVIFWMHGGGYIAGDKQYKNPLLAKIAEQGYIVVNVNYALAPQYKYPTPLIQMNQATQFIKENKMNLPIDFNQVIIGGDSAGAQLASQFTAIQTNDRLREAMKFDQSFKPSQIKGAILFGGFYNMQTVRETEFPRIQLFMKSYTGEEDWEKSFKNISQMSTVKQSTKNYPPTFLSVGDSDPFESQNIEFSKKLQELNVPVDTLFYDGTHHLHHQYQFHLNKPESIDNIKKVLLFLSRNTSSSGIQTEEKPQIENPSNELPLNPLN", "experiment": "p-nitrophenol release at […] nm", "format": "biochemical", "conditions": "2 mM ester, 100 mM Tris HCl, 100 mM NaCl, pH 7, 37 C"}, "[2]": {"target": "T1, rSAL3 (Staphylococcus aureus lipase 3, SAL3)", "experiment": "LC-MS/MS loss of OAG without oleic acid release; also protein lipid overlay binding", "format": "biochemical", "conditions": "2 h, 37 C, PBS; 2 ug/mL OAG; hydrolysis at the sn-2 acetate inferred"}},
  "data": [
    {"smiles": "CCCC(=O)Oc1ccc([N+](=O)[O-])cc1", "note": "[pNP-C4, paranitrophenol butyrate]", "values": [
      {"measurement": "specific activity", "setting": "[1]", "result": "Alanine substitution mutations introduced in rSAL3MUT abolished the activity against pNP-C4"}
    ]},
    {"smiles": "CCCCCCCC/C=C\\CCCCCCCC(=O)OCC(CO)OC(C)=O", "note": "(centres unmarked) [1-oleoyl 2-acetyl glycerol]", "values": [
      {"measurement": "LC-MS/MS loss of OAG without oleic acid release; also protein lipid overlay bind", "setting": "[2]", "result": "marked reduction in the substrate only in reactions containing WT rSAL3"}
    ]}
  ]
}
